Experimental data from US11813362B2, “Film-coated tablet comprising a triazine derivative for use in the treatment of diabetes” (Poxel, priority 2018, dated 2023).

Test: Compatibility tests of imeglimin with excipients as 50:50 (w/w) binary mixture
Type: physicochemical
Excerpt: In a preferred embodiment, the binder consists of hydroxypropylcellulose. In other embodiments, it may comprise at least one other binder in addition to hydroxypropylcellulose, which may be selected from: microcrystalline cellulose, methylcellulose, ethylcellullose, hydroxyethylcellulose, hydroxypropylmethylcellulose (hypromellose), sodium carboxymethylcellulose (carmellose), gelatin, gum arabic, dextrin, maltodextrin, pregelatinized starch, gelatin, acacia gum, guar gum, sodium alginate, alginic acid, carbomer, polyvinyl alcohol and mixtures thereof. […] The binder(s) may represent from 1.5 to 4.5 wt. %, preferably from 3.5 to 4.5 wt. %, relative to the total weight of the tablet.
In addition to the binder(s), the tablet of this invention comprises at least one disintegrant. […] The disintegrant may thus be selected from the group consisting of: sodium croscarmellose, sodium carboxymethyl starch, hydroxypropylcellulose, calcium carboxymethylcellulose, microcrystalline cellulose, calcium carbonate, magnesium aluminum silicate, sodium starch glycolate, pregelatinized starch, sodium alginate, alginic acid, guar gum and their mixtures, for instance. Preferably, the disintegrant comprises, or preferably is, sodium croscarmellose. The disintegrant(s) may represent from 1.5 to 3 wt. %, preferably from 1.8 to 2.2 wt. %, relative to the total weight of the tablet.

SMILES: C[C@@H]1NC(=N)N=C(N(C)C)N1.Cl [imeglimin, (+)-2-amino-3,6-dihydro-4-dimethylamino-6-methyl-1,3,5-triazine hydrochloride]
- formation of degradation products (compatibility) (50:50 (w/w) binary mixture with crospovidone): degradation products are formed
- formation of degradation products (compatibility) (50:50 (w/w) binary mixture with polyvinylpyrrolidone (povidone)): degradation products are formed
